#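 Interpolation was linear, between the two tested concentrations surrounding the appropriate level; five concentrations were tested over 48 hours in 96-well plates. At the GI50, growth is halved.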 Active and inactive are the calls of the source. Cut-off read from the data, not from the text of the source: active = GI50 up to about 1.1 µM and inactive = higher.
# Columns and labels:
# Test in all cases: inhibition of tumour cell growth, NCI panel, 48 h
# NCI/ADR-RES = test system: NCI/ADR-RES
# SF-268 = test system: SF-268
# MDA-MB-231 = test system: MDA-MB-231
# Malme-3M = test system: Malme-3M
# NCI-H522 = test system: NCI-H522
# HT-29 = test system: HT-29
# TK-10 = test system: TK-10
# ACHN = test system: ACHN
# NCI-H460 = test system: NCI-H460
# SK-OV-3 = test system: SK-OV-3
# SW-620 = test system: SW-620
# RXF 393 = test system: RXF 393
# HCT-15 = test system: HCT-15
# SF-295 = test system: SF-295
# BT-549 = test system: BT-549
# KM12 = test system: KM12
# EKVX = test system: EKVX
# HL-60 = test system: HL-60
# RPMI-8226 = test system: RPMI-8226
# SR = test system: SR
SMILES,GI50 (NCI/ADR-RES),GI50 (SF-268),GI50 (MDA-MB-231),GI50 (Malme-3M),GI50 (NCI-H522),GI50 (HT-29),GI50 (TK-10),GI50 (ACHN),GI50 (NCI-H460),GI50 (SK-OV-3),GI50 (SW-620),GI50 (RXF 393),GI50 (HCT-15) [µM],GI50 (SF-295),GI50 (BT-549),GI50 (KM12),GI50 (EKVX),GI50 (HL-60),GI50 (RPMI-8226),GI50 (SR)
CO/N=C/c1c(-c2ccc(Cl)cc2)c(/C=N/OC)n2c1sc1ccccc12,> 100 µM (inactive),> 100 µM (inactive),> 100 µM (inactive),> 100 µM (inactive),> 100 µM (inactive),81.8 µM (inactive),> 100 µM (inactive),> 100 µM (inactive),> 100 µM (inactive),> 100 µM (inactive),> 100 µM (inactive),> 100 µM (inactive),> 100,> 100 µM (inactive),> 100 µM (inactive),> 100 µM (inactive),> 100 µM (inactive),32 µM (inactive),–,–
NC(=S)N1N=C(c2ccccc2O)CC1c1ccccc1 (stereo not drawn),6.35 µM (inactive),20.8 µM (inactive),–,16.1 µM (inactive),3.99 µM (inactive),11 µM (inactive),20.1 µM (inactive),23.3 µM (inactive),14 µM (inactive),13.9 µM (inactive),9.59 µM (inactive),12.4 µM (inactive),5.62,6.43 µM (inactive),20.8 µM (inactive),7.4 µM (inactive),20.4 µM (inactive),3.69 µM (inactive),11.6 µM (inactive),–
C(=N\c1ccc(-c2nc3ccccc3s2)cc1)/c1cccs1,43.3 µM (inactive),34.8 µM (inactive),–,68.5 µM (inactive),32.1 µM (inactive),52.4 µM (inactive),30.5 µM (inactive),35.8 µM (inactive),36.1 µM (inactive),81.8 µM (inactive),75.3 µM (inactive),27.5 µM (inactive),40.6,23.2 µM (inactive),56.2 µM (inactive),40.1 µM (inactive),45.2 µM (inactive),< 0.01 µM (active),33.4 µM (inactive),39.6 µM (inactive)
Cc1cc(-c2ccccc2)nc2oc(=O)n(C)c12,> 100 µM (inactive),> 100 µM (inactive),64.9 µM (inactive),> 100 µM (inactive),> 100 µM (inactive),> 100 µM (inactive),34.4 µM (inactive),> 100 µM (inactive),> 100 µM (inactive),> 100 µM (inactive),> 100 µM (inactive),28.1 µM (inactive),> 100,39.5 µM (inactive),> 100 µM (inactive),> 100 µM (inactive),42.8 µM (inactive),> 100 µM (inactive),–,–
CC(=O)CC1(OC(=O)C2C(C=C(C)C)C2(C)C)C(=O)Nc2ccccc21 (stereo not drawn),68.5 µM (inactive),> 100 µM (inactive),> 100 µM (inactive),> 100 µM (inactive),64.6 µM (inactive),> 100 µM (inactive),> 100 µM (inactive),78.3 µM (inactive),82.8 µM (inactive),> 100 µM (inactive),> 100 µM (inactive),> 100 µM (inactive),> 100,> 100 µM (inactive),–,> 100 µM (inactive),> 100 µM (inactive),> 100 µM (inactive),96.6 µM (inactive),> 100 µM (inactive)
O=C(Nc1cccc(F)c1)c1cc2ccc(O)cc2o/c1=N\c1ccccc1F,2.9 µM (inactive),2.74 µM (inactive),–,4.3 µM (inactive),2.09 µM (inactive),21.2 µM (inactive),–,3.34 µM (inactive),3.15 µM (inactive),5.36 µM (inactive),4.7 µM (inactive),–,2.88,8.39 µM (inactive),2.13 µM (inactive),3.75 µM (inactive),2.18 µM (inactive),2.45 µM (inactive),1.69 µM (inactive),2.47 µM (inactive)
Oc1ccc2ccccc2c1/N=N\c1cccc2ccccc12,> 100 µM (inactive),> 100 µM (inactive),> 100 µM (inactive),–,82.6 µM (inactive),> 100 µM (inactive),> 100 µM (inactive),> 100 µM (inactive),–,> 100 µM (inactive),> 100 µM (inactive),> 100 µM (inactive),> 100,> 100 µM (inactive),–,> 100 µM (inactive),36 µM (inactive),52.8 µM (inactive),> 100 µM (inactive),< 0.01 µM (active)
COC[C@@H](/N=C/C(C)(C)C)C(C)C,> 100 µM (inactive),> 100 µM (inactive),> 100 µM (inactive),> 100 µM (inactive),> 100 µM (inactive),> 100 µM (inactive),72.1 µM (inactive),> 100 µM (inactive),> 100 µM (inactive),> 100 µM (inactive),> 100 µM (inactive),> 100 µM (inactive),> 100,> 100 µM (inactive),–,> 100 µM (inactive),> 100 µM (inactive),> 100 µM (inactive),> 100 µM (inactive),> 100 µM (inactive)
CC[C@H](C)[C@H](NC(=O)N(CCC#N)CCN(CCN(C(=O)N[C@@H](Cc1ccccc1)C(=O)OC)c1ccccc1)C(=O)N[C@H](C(=O)OC)C(C)C)C(=O)OC,23.6 µM (inactive),21.5 µM (inactive),18 µM (inactive),17.2 µM (inactive),–,–,18.3 µM (inactive),13.8 µM (inactive),–,20.9 µM (inactive),21.4 µM (inactive),14.2 µM (inactive),21.8,18.1 µM (inactive),22.9 µM (inactive),20.9 µM (inactive),29.7 µM (inactive),0.879 µM (active),10.7 µM (inactive),–
Cc1cc(Cc2c(F)c(F)c(Cc3cc(C)no3)c(F)c2F)on1,> 100 µM (inactive),21.7 µM (inactive),46.6 µM (inactive),> 100 µM (inactive),> 100 µM (inactive),> 100 µM (inactive),54.2 µM (inactive),> 100 µM (inactive),–,38.5 µM (inactive),–,33 µM (inactive),> 100,39.9 µM (inactive),> 100 µM (inactive),–,> 100 µM (inactive),> 100 µM (inactive),> 100 µM (inactive),–
CC(=O)Oc1ccc2cc(Oc3ccc(Cl)c(Cl)c3)c(=O)oc2c1,–,34 µM (inactive),27 µM (inactive),29.2 µM (inactive),21.2 µM (inactive),35.5 µM (inactive),17.9 µM (inactive),25.8 µM (inactive),24 µM (inactive),–,33.3 µM (inactive),19.2 µM (inactive),14.6,38.1 µM (inactive),12.6 µM (inactive),18.5 µM (inactive),24 µM (inactive),60.5 µM (inactive),20.4 µM (inactive),35.3 µM (inactive)
CCCCCCCCC[C@@H]1C[C@@H]2CCC3C(C(=O)OCCCCNC(=O)OCc4ccccc4)=C(C)N=C(N1)N32 (stereo partly drawn),2.62 µM (inactive),2.85 µM (inactive),2.28 µM (inactive),–,2.52 µM (inactive),3.29 µM (inactive),4.5 µM (inactive),3.15 µM (inactive),3.22 µM (inactive),3.2 µM (inactive),3.45 µM (inactive),2.55 µM (inactive),2.81,3.44 µM (inactive),3.67 µM (inactive),3.13 µM (inactive),2.72 µM (inactive),1.98 µM (inactive),2.13 µM (inactive),–

# — ChEMBL document CHEMBL1201862, “PubChem BioAssay data set” (2004)
